One experiment concerns EAE in SJL mice. The experiment in a line: Murine active EAE model, mIFN-β protein and pBRES mIFN-β plasmid with MFP pellet. Type of experiment: in vivo. The settings on record: 25 days. The method, then: FIG. 39A illustrates the effect of treatment of mice with induced EAE neuroinflammation with mIFN-β protein by SC injection every other day for 25 days. SJL mice were immunized on day 1 with proteolipid peptide (PLP) amino acids 139-151/pertussis according to the protocol described in Material and Methods. Groups of mice (n=10 per group) were injected SC on day 1 with mIFN-β protein, 100,000 units (500 ng) or 300,000 units (1500 ng), or vehicle. Animals were scored for EAE disease progression and the average clinical scores are provided with the standard error of the mean score (SEM).
FIG. 39B illustrates the delay in the onset of disease and decrease in the severity of disease following administration of pBRES mIFN-β as compared to the null vector control group. SJL mice were immunized on day I with PLP 139-151/pertussis according to the protocol described. Groups of mice (n=10 per group) were injected IM on day-7 with 200 ug of either pBRES null plasmid DNA or pBRES mIFN-β plasmid DNA with electroporation. One group of mice were treated daily with Prednisolone by IP injection and served as the positive control for the study. Plasmid treated mice were administered one mifepristone (MFP) containing slow release pellets by SC injection on day-3. Animals were scored for EAE disease progression and the average clinical scores are provided with the standard error of the mean score (SEM). […]

Another experiment has as its system JE. The experiment in a line: JE plasma level after bolus mIFN-β protein (ELISA). Type of experiment: in vivo, C57BL/6 mice. As for the experimental part:
C57BL/6 mice were administered 15, 150, or 500 ng of purified recombinant mIFN-β protein (specific activity=2.0×10^8 units/mg) by either i.v. (via tail vein) or i.m. injection (n=3 mice per group). The mice were bled at 2, 4, 6, 12, 24, and 48 hours post-injection, and the plasma levels of IP-10 and JE were measured by ELISA (R&D Systems).
For orientation: ELISA stands for enzyme-linked immunosorbent assay.

On to “mIFN-β: purified recombinant murine interferon-beta protein expressed in 293E cells”, for which the “severity of disease (clinical scores) compared to vehicle” value in the experiment on EAE in SJL mice (100,000 units SC every other day) and in the experiment with EAE in SJL mice (300,000 units SC every other day) was “significantly reduced the severity of the disease” throughout. Also, in the experiment with JE (each of three doses), the “time by which plasma JE dropped to background” value was no more than 24 h. The “time of strong induction of JE after administration” value in the experiment with JE (i.v. or i.m.) was 2 h.
